The values below come from the supplement of paper PMC10307832.

What all share (experiment): relative viability (nuclei count vs DMSO), 5 days (fraction); higher = more cells survive
Compound in experiment [1]: COc1cccc2cc(-c3nc([C@H]4CC[C@H](C(=O)O)CC4)n4ncnc(N)c34)[nH]c12 [OSI-027] + COc1cc2c(Oc3ccc(NC(=O)C4(C(=O)Nc5ccc(F)cc5)CC4)cc3F)ccnc2cc1OCCCN1CCOCC1 [Foretinib] (partner 0.25 µM)
The essentials: (§1)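 A single step with final 0.05% Triton X-100, 1% formaldehyde and 1 ug/ml Hoechst fixed the cells and stained nuclei 5 days after treatment. Lung cancer cell lines in 1536-well plates had been treated by pin tool the day after seeding with one drug alone or a fixed anchor-drug dose plus five library-drug doses (not always all listed) in √10 steps, and nuclei were counted on 4× images. Relative viability is the ratio of nuclei in treated wells to nuclei in vehicle wells, taken as the median of duplicate plates.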

Compound in experiment [2]: COc1cccc2cc(-c3nc([C@H]4CC[C@H](C(=O)O)CC4)n4ncnc(N)c34)[nH]c12 [OSI-027] + N=C(N)NC(=N)NCCc1ccccc1 [Phenformin] (partner 250 µM)
The gist of the method: as §1

Compound in experiment [3]: COc1cccc2cc(-c3nc([C@H]4CC[C@H](C(=O)O)CC4)n4ncnc(N)c34)[nH]c12 [OSI-027] + Nc1ncn([C@H]2C[C@H](O)[C@@H](CO)O2)c(=O)n1 [Decitabine] (partner 2 µM)
The gist of the method: as §1

Compound in experiment [4]: COc1cccc2cc(-c3nc([C@H]4CC[C@H](C(=O)O)CC4)n4ncnc(N)c34)[nH]c12 [OSI-027] + O=C(c1cc(Cc2n[nH]c(=O)c3ccccc23)ccc1F)N1CCN(C(=O)C2CC2)CC1 [Olaparib] (partner 8 µM)
The essentials: as §1

For the cell line NCI-H650, the relative viability in experiment [1] (first compound 0.01 µM) was determined as 1.08; in experiment [1] (first compound 0.03162 µM), 1.09; in experiment [1] (first compound 0.1 µM), 1.01; in experiment [1] (first compound 0.3162 µM), 0.868; in experiment [1] (first compound 1 µM), 0.514; in experiment [2] (first compound 0.01 µM), 0.424. The relative viability came to 0.487 in experiment [2] (first compound 0.03162 µM); 0.394 in experiment [2] (first compound 0.1 µM); 0.417 in experiment [2] (first compound 0.3162 µM); 0.285 in experiment [2] (first compound 1 µM); 0.303 in experiment [3] (first compound 0.01 µM); 0.317 in experiment [3] (first compound 0.03162 µM). Further, the relative viability in experiment [3] (first compound 0.1 µM) stood at 0.288; in experiment [3] (first compound 0.3162 µM), 0.3; in experiment [3] (first compound 1 µM), 0.276; in experiment [4] (first compound 0.01 µM), 0.406; in experiment [4] (first compound 0.03162 µM), 0.38; in experiment [4] (first compound 0.1 µM), 0.364. Further, the relative viability in experiment [4] (first compound 0.3162 µM) came to 0.337; in experiment [4] (first compound 1 µM), 0.219.
Take BEN: the relative viability came to 0.475 in experiment [1] (first compound 0.01 µM); 0.617 in experiment [1] (first compound 0.03162 µM); 0.371 in experiment [1] (first compound 0.1 µM); 0.3 in experiment [1] (first compound 0.3162 µM); 0.258 in experiment [1] (first compound 1 µM); 0.248 in experiment [2] (first compound 0.01 µM). Also, the relative viability is 0.27 in experiment [2] (first compound 0.03162 µM); 0.288 in experiment [2] (first compound 0.1 µM); 0.244 in experiment [2] (first compound 0.3162 µM); 0.232 in experiment [2] (first compound 1 µM); 0.609 in experiment [3] (first compound 0.01 µM); 0.707 in experiment [3] (first compound 0.03162 µM). Further, the relative viability was determined as 0.596 in experiment [3] (first compound 0.1 µM); 0.513 in experiment [3] (first compound 0.3162 µM); 0.483 in experiment [3] (first compound 1 µM); 1.15 in experiment [4] (first compound 0.01 µM); 1.19 in experiment [4] (first compound 0.03162 µM); 0.769 in experiment [4] (first compound 0.1 µM). Moreover, the relative viability in experiment [4] (first compound 0.3162 µM) was 0.554; in experiment [4] (first compound 1 µM), 0.527.
NCI-H647: the relative viability in experiment [1] (first compound 0.01 µM) is 1.39; in experiment [1] (first compound 0.03162 µM), 1.14; in experiment [1] (first compound 0.1 µM) it was 1.28; in experiment [1] (first compound 0.3162 µM), 1.01; in experiment [1] (first compound 1 µM), 0.575; in experiment [2] (first compound 0.01 µM) it was 0.569. For the same cell line, the relative viability in experiment [2] (first compound 0.03162 µM) turned out to be 0.565; in experiment [2] (first compound 0.1 µM) it was 0.475; in experiment [2] (first compound 0.3162 µM), 0.415; in experiment [2] (first compound 1 µM), 0.242; in experiment [3] (first compound 0.01 µM), 0.385; in experiment [3] (first compound 0.03162 µM) it was 0.543. Also, the relative viability in experiment [3] (first compound 0.1 µM) worked out at 0.397; in experiment [3] (first compound 0.3162 µM), 0.248; in experiment [3] (first compound 1 µM) it was 0.211; in experiment [4] (first compound 0.01 µM), 0.681; in experiment [4] (first compound 0.03162 µM), 0.613; in experiment [4] (first compound 0.1 µM), 0.56. For the same cell line, the relative viability was 0.463 in experiment [4] (first compound 0.3162 µM) and 0.398 in experiment [4] (first compound 1 µM).
Turning to NCI-H661, the relative viability is 0.984 in experiment [1] (first compound 0.01 µM); 0.893 in experiment [1] (first compound 0.03162 µM); 1.03 in experiment [1] (first compound 0.1 µM); 0.975 in experiment [1] (first compound 0.3162 µM); 0.599 in experiment [1] (first compound 1 µM); 0.263 in experiment [2] (first compound 0.01 µM). The relative viability in experiment [2] (first compound 0.03162 µM) was determined as 0.286; in experiment [2] (first compound 0.1 µM) it was 0.254; in experiment [2] (first compound 0.3162 µM), 0.258; in experiment [2] (first compound 1 µM), 0.245; in experiment [3] (first compound 0.01 µM) it was 0.521; in experiment [3] (first compound 0.03162 µM), 0.522. Moreover, the relative viability in experiment [3] (first compound 0.1 µM) worked out at 0.491; in experiment [3] (first compound 0.3162 µM), 0.417; in experiment [3] (first compound 1 µM), 0.327; in experiment [4] (first compound 0.01 µM), 0.852; in experiment [4] (first compound 0.03162 µM), 0.735; in experiment [4] (first compound 0.1 µM), 0.748. Further, the relative viability turned out to be 0.712 in experiment [4] (first compound 0.3162 µM) and 0.423 in experiment [4] (first compound 1 µM).
